A word on the IC50: it is the point on the concentration scale where inhibition reaches its midpoint.

The structures appear in SMILES notation.

Test [1] has as its system primary human total T-cells. As to the kind of experiment: T-cell activation, IL-2 secretion, Biological Example 2. In kind it is cell-based. As to conditions: 48 hours, fold change over baseline; for fold induction at 0.3 µM: 0.3 μM inhibitor; for fold induction at 1 µM: 1 μM inhibitor; for fold induction at 3 µM: 3 μM inhibitor.
Test [2] has as its target T1, Cbl-b (Homo sapiens (Human), UniProt Q13191). As to the kind of experiment: Cbl-b displacement assay (Cbl-b inhibition assay), Biological Example 1. In kind it is binding. The gist of the method: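 Avitag-biotinylated human Cbl-b (residues 36–427) at 0.5 nM ("High") or 0.125 nM ("Low") pre-incubated 1 h with compound (1% DMSO) in HEPES pH 7.5/NaCl/Triton/BSA/TCEP, RT. Then 1 h with 150 nM BODIPY FL inhibitor probe (~EC40) plus 2 nM streptavidin-Tb. TR-FRET read at 520/620 nm for probe displacement.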

Test [3] relates to primary human total T-cells. As to the kind of experiment: T-cell activation, IL-2 secretion, Biological Example 13. Type of test: cell-based. As to conditions: 48 hours, fold change over baseline, Table 8; for IL-2 secretion CD3/CD28 0.3 μM / IL-2 secretion CD3/CD28 1 μM: anti-CD3 and anti-CD28 co-stimulation; for IL-2 secretion CD3/CD28 0.3 μM: 0.3 μM inhibitor; for IL-2 secretion CD3/CD28 1 μM / IL-2 secretion CD3 1 μM: 1 μM inhibitor; for IL-2 secretion CD3 1 μM / IL-2 secretion CD3 3 μM: anti-CD3 stimulation alone; for IL-2 secretion CD3 3 μM: 3 μM inhibitor.

For test [4], the target named is T1, Cbl-b. As to the kind of experiment: Cbl-b displacement assay (Cbl-b inhibition assay), Biological Example 12. Type of test: binding. Conditions: 0.125 nM Cbl-b final concentration (Low), Table 7; read-out: Cbl-b IC50 (Low). Here is the method: (§1) Candidate compounds were evaluated for their ability to bind and inhibit Cbl-b, an E3 ubiquitin-protein ligase, as evidenced by their ability to displace a fluorophore-labeled probe bound to Cbl-b.
(§2) The ability of candidate compounds to displace a known inhibitor and thereby inhibit Cbl-b activity was measured by monitoring the interaction of Cbl-b with a fluorophore-labeled probe in the presence of the candidate compound. A truncated variant of Cbl-b (UniProt number Q13191) containing residues 36-427 and an Avitag at its N-terminus was co-expressed with BirA biotin ligase and purified using a standard protocol (see Dou et al., Nature Structural and Molecular Biology 8: 982-987, 2013; Avidity LLC).
Fluorescently-labeled inhibitor probe was synthesized and tagged with BODIPY FL. Cbl-b displacement assays were performed in a 384-well plate at room temperature in a […] by pre-incubating 0.5 nM Cbl-b or 0.125 nM Cbl-b (final concentration, indicated as “High” and “Low,” respectively) in an assay buffer containing 20 mM HEPES pH 7.5, 150 mM NaCl, 0.01% Triton X-100, 0.01% BSA and 0.5 mM TCEP in the presence of a candidate compound in 1% DMSO (final concentration) for one hour. After incubation in the presence of the candidate compound, the plate was incubated for an additional one hour in the presence of an approximate EC40 binding saturation consisting of 150 nM fluorescently-labeled inhibitor probe and 2 nM Streptavidin-Terbium (Cisbio) (final concentrations). Following the one hour incubation, the plates were read for TR-FRET signal at […] using an Envision plate reader (Perkin Elmer).
(§3) The resulting data for the Cbl-b activity assays were analyzed using standard methods to determine the IC50 values for the tested compounds.

For test [5], the target named is T1, Cbl-b. As to the kind of experiment: Cbl-b displacement assay (Cbl-b inhibition assay), Biological Example 8. In kind it is binding. As to conditions: 0.125 nM Cbl-b final concentration (Low), Table 4; read-out: Cbl-b IC50 (Low). The procedure: as §1, §2
Fluorescently-labeled inhibitor probe was synthesized and tagged with BODIPY FL. Cbl-b displacement assays were performed in a 384-well plate at room temperature in a […] by pre-incubating 0.5 nM Cbl-b or 0.125 nM Cbl-b (final concentration, indicated as “High” and “Low,” respectively) in an assay buffer containing 20 mM HEPES pH 7.5, 150 mM NaCl, 0.01% Triton X-100, 0.01% BSA, and 0.5 mM TCEP in the presence of a candidate compound in 1% DMSO (final concentration) for 1 hour. After incubation in the presence of the candidate compound, the plate was incubated for an additional one hour in the presence of an approximate EC40 binding saturation consisting of 150 nM fluorescently-labeled inhibitor probe and 2 nM Streptavidin-Terbium (Cisbio) (final concentrations). Following the one hour incubation, the plates were read for TR-FRET signal at […] using an Envision plate reader (Perkin Elmer).
as §3

Test [6] relates to primary human total T-cells. As to the kind of experiment: T-cell activation, CD25 surface staining, Biological Example 2. In kind it is cell-based. As to conditions: 48 hours, fold change over baseline; for fold induction at 0.3 µM: 0.3 μM inhibitor; for fold induction at 1 µM: 1 μM inhibitor; for fold induction at 3 µM: 3 μM inhibitor.
Test [7] has as its system primary human total T-cells. As to the kind of experiment: T-cell activation, IL-2 secretion, Biological Example 9. Type of test: cell-based. As to conditions: 48 hours, fold change over baseline, Table 5; for IL-2 secretion CD3/CD28 0.3 μM / IL-2 secretion CD3/CD28 1 μM: anti-CD3 and anti-CD28 co-stimulation; for IL-2 secretion CD3/CD28 0.3 μM: 0.3 μM inhibitor; for IL-2 secretion CD3/CD28 1 μM / IL-2 secretion CD3 1 μM: 1 μM inhibitor; for IL-2 secretion CD3 1 μM / IL-2 secretion CD3 3 μM: anti-CD3 stimulation alone; for IL-2 secretion CD3 3 μM: 3 μM inhibitor.

The mark [8] stands for this setting: anti-CD3 and anti-CD28 co-stimulation.
Setting [9] is: anti-CD3 and anti-CD28 co-stimulation, read-out: IL-2 secretion CD3/CD28 1 μM.
[10] abbreviates: anti-CD3 stimulation alone, read-out: IL-2 secretion CD3 1 μM.
Where [11] appears, read: 0.125 nM Cbl-b final concentration (Low), read-out: Cbl-b activity IC50 (Low).
[12] abbreviates: anti-CD3 and anti-CD28 co-stimulation, read-out: CD25 staining CD3/CD28 1 μM.
Where [13] appears, read: anti-CD3 stimulation alone, read-out: CD25 staining CD3 1 μM.

T1 sequence (Q13191 36-427): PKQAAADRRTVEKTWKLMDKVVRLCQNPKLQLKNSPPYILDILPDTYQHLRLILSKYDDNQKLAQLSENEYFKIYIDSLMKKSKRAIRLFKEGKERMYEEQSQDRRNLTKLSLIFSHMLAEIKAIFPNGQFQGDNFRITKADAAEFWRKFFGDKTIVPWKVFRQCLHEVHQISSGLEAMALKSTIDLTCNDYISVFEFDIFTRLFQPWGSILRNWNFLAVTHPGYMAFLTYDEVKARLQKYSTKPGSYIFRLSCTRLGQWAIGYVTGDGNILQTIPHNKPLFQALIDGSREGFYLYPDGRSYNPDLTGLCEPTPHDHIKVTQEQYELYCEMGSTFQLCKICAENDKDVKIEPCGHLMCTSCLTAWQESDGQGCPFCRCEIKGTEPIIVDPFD

Regarding `C[C@H]1CCCN(Cc2cc3c(c(C(F)(F)F)c2)CN(c2cccc([C@]4(Cc5nncn5C)C[C@@H](C#N)C4)c2)C3=O)C1` [Compound 19, (1R,3r)-3-((4-methyl-4H-1,2,4-triazol-3-yl)methyl)-3-(3-(6-(((S)-3-methylpiperidin-1-yl)methyl)-1-oxo-4-(trifluoromethyl)isoindolin-2-yl)phenyl)cyclobutane-1-carbonitrile], the figures for the fold induction at 0.3 µM in test [1] (setting [8]) and in test [6] (setting [8]) were over 20 and over 1.39, respectively. Besides, the fold induction at 1 µM in test [1] (setting [9]) is over 20; in test [1] (setting [10]), over 0.85; in test [6] (setting [12]), over 1.39; in test [6] (setting [13]) it was over 1.15. Besides, the fold induction at 3 µM is over 0.85 in test [1] (anti-CD3 stimulation alone) and over 1.15 in test [6] (anti-CD3 stimulation alone). Also, the concentration for half-maximal inhibition (IC50) at Cbl-b [2] (setting [11]), at Cbl-b [4] and on Cbl-b [5] was under 1 nM each time. Moreover, the “IL-2 secretion CD3/CD28 0.3 μM” value in test [3] and in test [7] was “A (A indicates >15 fold)” throughout. In addition, the “IL-2 secretion CD3/CD28 1 μM” value in test [3] and in test [7] was “A (A indicates >15 fold)” throughout. Also, the “IL-2 secretion CD3 1 μM” value in test [3] and in test [7] was “A (A indicates >0.66 fold)” each time. Also, the “IL-2 secretion CD3 3 μM” value in test [3] and in test [7] was “A (A indicates >0.66 fold)” throughout.

Take `C[C@@H]1CN(Cc2cc(C(=O)Nc3cccc([C@]4(Cc5nncn5C)C[C@@H](C#N)C4)c3)nc(C3CC3)c2)CCO1` [Compound 56, N-(3-((1r,3R)-3-cyano-1-((4-methyl-4H-1,2,4-triazol-3-yl)methyl)cyclobutyl)phenyl)-6-cyclopropyl-4-(((R)-2-methylmorpholino)methyl)picolinamide]: the fold induction at 0.3 µM in test [1] (setting [8]) is 15 to 20; in test [6] (setting [8]), at most 1.24. The fold induction at 1 µM in test [1] (setting [9]) is over 20; in test [1] (setting [10]) it was 0.4 to 0.85; in test [6] (setting [12]), at most 1.24; in test [6] (setting [13]), 1 to 1.15. In addition, the fold induction at 3 µM was 0.4 to 0.85 in test [1] (anti-CD3 stimulation alone) and 1 to 1.15 in test [6] (anti-CD3 stimulation alone). Further, the IC50 on Cbl-b [2] (setting [11]), on Cbl-b [4] and at Cbl-b [5] was under 1 nM in each case. The “IL-2 secretion CD3/CD28 0.3 μM” value in test [3] and in test [7] was “A (A indicates >15 fold)” throughout. In addition, the “IL-2 secretion CD3/CD28 1 μM” value in test [3] and in test [7] was “A (A indicates >15 fold)” in each case. The “IL-2 secretion CD3 1 μM” value in test [3] and in test [7] was “A (A indicates >0.66 fold)” throughout. Besides, the “IL-2 secretion CD3 3 μM” value in test [3] and in test [7] was “A (A indicates >0.66 fold)” in each case.

On to `Cn1cnnc1C[C@]1(c2cccc(N3Cc4c(cc(CN5CCC6(CC6)C5)cc4C(F)(F)F)C3=O)c2)C[C@H](C#N)C1` [Compound 4, (1r,3r)-3-(3-(6-((5-azaspiro[2.4]heptan-5-yl)methyl)-1-oxo-4-(trifluoromethyl)isoindolin-2-yl)phenyl)-3-((4-methyl-4H-1,2,4-triazol-3-yl)methyl)cyclobutane-1-carbonitrile], for which the figures for the fold induction at 0.3 µM in test [1] (setting [8]) and in test [6] (setting [8]) were at most 15 and 1.24 to 1.39, respectively. The fold induction at 1 µM was 15 to 20 in test [1] (setting [9]), 0.4 to 0.85 in test [1] (setting [10]), 1.24 to 1.39 in test [6] (setting [12]) and over 1.15 in test [6] (setting [13]). The fold induction at 3 µM in test [1] (anti-CD3 stimulation alone) is 0.4 to 0.85; in test [6] (anti-CD3 stimulation alone), over 1.15. For the same compound, the IC50 was 1 to 2 nM on Cbl-b [2] (setting [11]), 1 to 2 nM at Cbl-b [2] (read-out: IC50 values in the Cbl-b inhibition assay of Biological Example 1), 1 to 5 nM on Cbl-b [4] and 1 to 5 nM at Cbl-b [5]. Also, the “IL-2 secretion CD3/CD28 0.3 μM” value in test [3] and in test [7] was “A (A indicates >15 fold)” throughout. The “IL-2 secretion CD3/CD28 1 μM” value in test [3] and in test [7] was “A (A indicates >15 fold)” throughout. The “IL-2 secretion CD3 1 μM” value in test [3] and in test [7] was “A (A indicates >0.66 fold)” each time. For the same compound, the “IL-2 secretion CD3 3 μM” value in test [3] and in test [7] was “A (A indicates >0.66 fold)” each time.

As to `Cn1cnnc1C[C@]1(c2cccc(N3Cc4c(cc(CN[C@@H]5CCC(F)(F)C5)cc4C(F)(F)F)C3=O)c2)C[C@H](C#N)C1` [Compound 21, (1R,3r)-3-(3-(6-((((R)-3,3-difluorocyclopentyl)amino)methyl)-1-oxo-4-(trifluoromethyl)isoindolin-2-yl)phenyl)-3-((4-methyl-4H-1,2,4-triazol-3-yl)methyl)cyclobutane-1-carbonitrile], the values for the fold induction at 0.3 µM in test [1] (setting [8]) and in test [6] (setting [8]) were over 20 and over 1.39, respectively. The fold induction at 1 µM was over 20 in test [1] (setting [9]), over 0.85 in test [1] (setting [10]), over 1.39 in test [6] (setting [12]) and over 1.15 in test [6] (setting [13]). The results for the fold induction at 3 µM in test [1] (anti-CD3 stimulation alone) and in test [6] (anti-CD3 stimulation alone) were over 0.85 and over 1.15, respectively. In addition, the half-inhibitory concentration (IC50) on Cbl-b [2] (setting [11]), at Cbl-b [4] and at Cbl-b [5] was under 1 nM each time. Besides, the “IL-2 secretion CD3/CD28 0.3 μM” value in test [3] and in test [7] was “A (A indicates >15 fold)” throughout. The “IL-2 secretion CD3/CD28 1 μM” value in test [3] and in test [7] was “A (A indicates >15 fold)” each time. Also, the “IL-2 secretion CD3 1 μM” value in test [3] and in test [7] was “A (A indicates >0.66 fold)” throughout. For the same compound, the “IL-2 secretion CD3 3 μM” value in test [3] and in test [7] was “A (A indicates >0.66 fold)” throughout.
